Source: patent US9012625B2, “Method for the synthesis of a trisaccharide” (Glycom A/S, priority 2009, dated 2015)

Experiment: solubility in hot methanol
Type: physicochemical
Details: 3 volumes

Structure (SMILES): CC1O[C@@H](OC2C(O)[C@@H](O)C(CO)O[C@H]2O[C@@H]2C(CO)OC(O)C(O)C2O)C(OCc2ccccc2)C(OCc2ccccc2)[C@@H]1OCc1ccccc1 (stereo partly drawn) [anhydrous derivative, O-(2,3,4-tri-O-benzyl-α-L-fucopyranosyl)-(1→2)-O-β-D-galactopyranosyl-(1→4)-D-glucose]
- solubility in hot methanol: excellent solubility
